≈ marks a conversion by molar mass, not a printed value. Where “and” joins values, the source holds several entries; their conditions need not be identical. Equal entries are not always repeated.
What was measured:
Type in all cases: physicochemical
[1] = Dynamic vapor sorption (DVS) analysis; conditions: for further increase between 60% RH and 90% RH / water gain up to 60% RH / total water absorption over the humidity range: first sorption cycle, hydrobromide; for further increase between 60% RH and 90% RH: 60% RH to 90% RH; for total water absorption over the humidity range: up to 90% RH
Source text: Dynamic vapor sorption (DVS) data was collected for both 5-MeO DMT HBr Pattern A and Pattern B. The DSV data are shown in FIG. 10 (Pattern A) und FIG. 11 (Pattern B). DVS profiles are almost identical.

[2] = Particle size distribution by laser light scattering; conditions: sample weight 800 mg; listed as HBr salt, hydrobromide
Experimental: The particle size distribution of a sample obtained as in the above example was determined using a laser light scattering method.

[3] = Flow properties (bulk density, tapped density); conditions: for Hausner Factor: Tapped density/Bulk density; for Carr's Index: calculated from tapped and bulk density
Experimental: The bulk density and the tapped density of an HBr salt sample as obtained according to the above method was determined applying standard methods. • Bulk density: 0.19 g/cm^3 • Tapped density: 0.25 g/cm^3 • From this, the Carr's Index characterizing flow properties can be calculated ([…]). The index is 24%.

[4] = Solubility and pH in water for injection (24 hours equilibration, 25° C.); conditions: for pH value of the suspension/solution after 24 hours: in water for injection, determined at 25° C.; for solubility at 24 h: water for injection, 24 hours of equilibration, 25° C.
Experimental: 5-MeO-DMT freebase and 5-MeO-DMT hydrobromide (30 mg) were weighed out into crystallisation tubes, water for injection (WFI; 150 μL, 5 vols) was charged and samples were left to equilibrate (25° C.) over 24 hours.
The free base led to a suspension. An additional 850 μl of water was added. The mixture was still a suspension. […] The pH value of the suspension after 24 hours was 9.93, determined at 25° C.
In the case of 5-MeO-DMT HBr, a solution was obtained. […] The pH value of the solution after 24 hours was 6.84, determined at 25° C.

SMILES | modification of form following equilibration at extremes of relative humidity [1] | further increase between 60% RH and 90% RH [1] [wt %] | water gain up to 60% RH [1] [%] | total water absorption over the humidity range [1] [wt %] | Dv10 [2] | Dv90 [2] | Bulk density [3] [g/mL] | Tapped density [3] [g/mL] | Hausner Factor [3] | Carr's Index [3] [%] | pH value of the suspension/solution after 24 hours [4] | solubility at 24 h ([4]; pH 6.84, thermodynamic from solid) [µg/mL] | solubility at 24 h ([4]; pH 9.93, thermodynamic from solid) [µg/mL]
Br.COc1ccc2[nH]cc(CCN(C)C)c2c1 [5-MeO-DMT HBr Pattern A, 5-methoxy-N,N-dimethyltryptamine hydrobromide] | Neither form showed any modification | 1.56 | 0.13 | 1.7 |  |  |  |  |  |  |  |  | 
Br.COc1ccc2[nH]cc(CCN(C)C)c2c1 [5-MeO-DMT HBr Pattern B, 5-methoxy-N,N-dimethyltryptamine hydrobromide] | Neither form showed any modification | 1.57 | 0.14 | 1.71 |  |  |  |  |  |  |  |  | 
Br.COc1ccc2[nH]cc(CCN(C)C)c2c1 [5-MeO-DMT HBr, 5-methoxy-N,N-dimethyltryptamine hydrobromide] |  |  |  |  | 57.8 μm and 60.8 μm and 65.1 μm | 613 μm and 630 μm and 643 μm | 0.19 | 0.25 | 1.31 | 24 | 6.84 | > 200000 | 
COc1ccc2[nH]cc(CCN(C)C)c2c1 [free base, 5-Methoxy-N,N-dimethyltryptamine, reference compound] |  |  |  |  |  |  | 0.32 | 0.54 | 1.68 | 41 | 9.93 |  | 3290 (≈ 15.1 mM)
